Data published in US5302514A, “Maltooligoside derivative, reagent for determining α-amylase activity containing the same as effective ingredient and a process for determining the α-amylase activity using same” (Kikkoman Corporation, priority 1991, dated 1994).

Key:
[1] = molecular target: T1, amylase derived from human pancreatic juice (human P type α-amylase) (Homo sapiens, UniProt P04746); test: Km value, P type α-amylase; type: biochemical; settings: pH 7.0, 37° C., Lineweaver-Burk
T1 sequence (P04746 16-511): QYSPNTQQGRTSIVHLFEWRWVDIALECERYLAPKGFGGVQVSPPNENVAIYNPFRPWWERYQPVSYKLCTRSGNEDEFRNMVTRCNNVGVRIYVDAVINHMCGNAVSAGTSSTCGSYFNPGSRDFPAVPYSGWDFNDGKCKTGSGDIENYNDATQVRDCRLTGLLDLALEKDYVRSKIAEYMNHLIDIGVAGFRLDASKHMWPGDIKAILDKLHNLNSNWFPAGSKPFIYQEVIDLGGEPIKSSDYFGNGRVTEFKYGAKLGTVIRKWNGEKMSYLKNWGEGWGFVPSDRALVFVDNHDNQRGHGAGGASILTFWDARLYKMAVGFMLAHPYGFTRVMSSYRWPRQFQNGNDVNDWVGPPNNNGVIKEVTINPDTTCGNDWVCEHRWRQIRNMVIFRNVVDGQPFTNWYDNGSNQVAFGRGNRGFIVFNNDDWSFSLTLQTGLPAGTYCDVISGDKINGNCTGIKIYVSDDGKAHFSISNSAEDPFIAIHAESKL
Method: (§1) Km values, hydrolysis rate, water solubility and the patterns of action in the hydrolysis of the present substrates 2-chloro-4-nitrophenyl 5^5 -eno-4^5 -O-mesyl-β-D-maltopentaoside (EMG5CNP) and 2-chloro-4-nitrophenyl 6^5 -azido-6^5 -deoxy- β-D-maltopentaoside (ADG5CNP) obtained in Example were examined in accordance with the following methods.
(§2) Substrate solutions were prepared by dissolving in a 50 mM phosphate buffer (pH=7.0) containing 40 mM NaCl and 2 mM MgCl2 a substrate to 0.16, 0.32, 0.48, 0.64, 0.80 and 0.96 mM, respectively.
(§3) The Km value of each substrate solution was obtained by measuring the hydrolysis rate of the substrate in accordance with the same procedure as in the measurement of hydrolysis rate described below and roughly calculating the Lineweaver-Burk's reciprocal plot (see "Tanpaku-Kohso no Jikken-hou", ed. Takeichi Horio & Jinpei Yamashita, Nanko-do, 1981).
(§4) Each substrate was dissolved in a 50 mM phosphate buffer (pH=7.0) containing 40 mM NaCl and 2 mM MgCl2 to make three substrate solutions in a concentration of 0.8-1.6 times and three substrate solutions in a concentration of 1.6-3.2 times per the roughly calculated Km value in the aforementioned paragraph (ii).
(§5) The Km value was calculated in accordance with the same procedure as in the aforementioned paragraph (ii).
(§6) P: amylase derived from human pancreatic juice, […]

[2] = molecular target: T2, amylase derived from human saliva (human S type α-amylase) (Homo sapiens, UniProt P0DUB6); test: Patterns of action (hydrolyzed product by HPLC), S type α-amylase; type: biochemical; settings: 0.5 mM substrate, 37° C., 20 minutes
T2 sequence (P0DUB6 16-511): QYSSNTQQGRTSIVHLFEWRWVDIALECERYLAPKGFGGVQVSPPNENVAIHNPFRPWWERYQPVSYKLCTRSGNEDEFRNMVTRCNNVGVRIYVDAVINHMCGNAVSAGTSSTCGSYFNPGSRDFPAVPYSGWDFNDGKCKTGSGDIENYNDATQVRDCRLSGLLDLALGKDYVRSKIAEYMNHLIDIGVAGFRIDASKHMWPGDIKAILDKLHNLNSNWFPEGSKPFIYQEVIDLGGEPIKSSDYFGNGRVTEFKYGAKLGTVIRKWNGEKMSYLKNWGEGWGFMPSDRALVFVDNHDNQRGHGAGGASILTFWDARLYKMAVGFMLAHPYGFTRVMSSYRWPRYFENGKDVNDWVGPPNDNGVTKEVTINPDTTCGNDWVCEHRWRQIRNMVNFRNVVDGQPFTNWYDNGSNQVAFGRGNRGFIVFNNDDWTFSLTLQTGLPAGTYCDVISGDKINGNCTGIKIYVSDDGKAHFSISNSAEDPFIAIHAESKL
Method: (§7) Commercially available human P type and S type α-amylase solutions having a concentration of ca. 500 IU/l were prepared in the same manner as in the step (3) of Example 5.
(§8) To 1.0 ml of the substrate solution was added 100 μl of the α-amylase solution prepared in the paragraph (iii) of the aforementioned hydrolysis rate, and the mixture, after stirred sufficiently, was subjected to reaction at 37° C. for 20 minutes. The hydrolyzed product was determined quantitatively by the high performance liquid chromatography of the reaction mixture.
(§9) S: amylase derived from human saliva.

Solubility in water = type: physicochemical; settings: 20 g of substrate added to 100 ml of water
Method: To 100 ml of water was added 20 g of a substrate, and the dissolution state was observed.

[3] = molecular target: T2, amylase derived from human saliva (human S type α-amylase); test: Hydrolysis rate, S type α-amylase; type: biochemical; settings: relative to hydrolysis rate of 3 mM G5CNP defined as 10, substrate 7-9 times the Km
Method: (§10) The coupled enzyme solution was prepared in the same manner as in the step (2) of Example 5.
as §7
(§11) With 250 μl of the α-amylase solution prepared in (iii) was mixed 1.0 ml of the coupled enzyme. The mixture was heated at 37° C. for 1 minute, and 2.0 ml of the substrate solution was added with stirring to the mixture. The variation of absorbance at 400 nm was measured for 2 minutes after heating the mixture at 37° C. for 2 minutes. The hydrolysis rate of each substrate, namely the variable absorbance per unit time was expressed with the relative values to the hydrolysis rate of 3 mM G5CNP (the reference substrate) which is defined as 10.
as §9

[4] = molecular target: T1, amylase derived from human pancreatic juice (human P type α-amylase); test: Hydrolysis rate, P type α-amylase; type: biochemical; settings: relative to hydrolysis rate of 3 mM G5CNP defined as 10, substrate 7-9 times the Km
Method: as §10, §7, §11, §6

[5] = molecular target: T2, amylase derived from human saliva (human S type α-amylase); test: Km value, S type α-amylase; type: biochemical; settings: pH 7.0, 37° C., Lineweaver-Burk
Method: as §1, §2, §3, §4, §5, §9

[6] = molecular target: T1, amylase derived from human pancreatic juice (human P type α-amylase); test: Patterns of action (hydrolyzed product by HPLC), P type α-amylase; type: biochemical; settings: 0.5 mM substrate, 37° C., 20 minutes
Method: as §7, §8, §6

[7] = test system: human α-amylase (P:S=1:1); test: α-Amylase hydrolysis (increase in absorbance at 400 nm with coupled enzymes); type: biochemical; settings: for Increase in absorbance for 2 minutes (corrected by the 0 IU/l of α-amylase activity): substrate solution 3.00 mM, 400 nm, 37° C., pH 7.0; for hydrolysis by α-amylase (in words): as understood from Tables 1 and 2
Method: Coupled enzyme solution was prepared by dissolving a commercially available α-glucosidase derived from yeast and a commercially available β-glucosidase derived from almond in a 50 mM phosphate buffer (pH=7.0) containing 40 mM NaCl and 2 mM MgCl2 to a concentration of 117 units/ml and 13 units/ml, respectively. As the commercially available α- and β-glucosidases, those available from Toyobo Co., Ltd. were used.
Standard α-amylase solutions were prepared by dissolving a commercially available human α-amylase (P:S=1:1) in purified water to a concentration of 0, 148, 284, 401 and 525 IU/l, respectively. As the commercially available human α-amylase, Calibzyme.AMY manufactured by International Reagents Corp. was employed. As for the activity of α-amylase, an amount of the enzyme which decomposes 1μ mol of (a commercially available) 2-chloro-4-nitrophenyl β-D-maltopentaoside at 37° C. for one minute was defined as 1 international unit (IU).
The substrate solution (a) was prepared by dissolving 2-chloro-4-nitorphenyl 6^5 -azido-6^5 -deoxy-β-D-maltopentaoside (referred to hereinafter as the substrate of the present invention) obtained in Example 3 in a 50 mM phosphate buffer (pH=7.0) containing 40 mM NaCl and 2 mM MgCl2 to a concentration of 3.00 mM.
The substrate solution (b) was prepared by dissolving 2-chloro-4-nitrophenyl 6^3 -azido-6^3 -deoxy-β-D-maltotrioside (referred to hereinafter as the reference substrate) obtained in the step (1) in a 50 mM phosphate buffer (pH=7.0) containing 40 mM NaCl and 2 mM MgCl2 to a concentration of 3.00 mM.
A coupled enzyme solution was prepared in the same manner as in the step (2) of Example 5.
α-amylase solutions were prepared in the same manner as in the step (3) of Example 5 by dissolving a commercially available human α-amylase (P:S=1:1) in purified water to a concentration of 0, 250 and 500 IU/l, respectively.
The coupled enzyme solution in an amount of 1.0 ml was added with stirring to 250 μl of the α-amylase solution, and the mixture was heated at 37° C. for one minute. Each of the substrate solution in an amount of 2.0 ml was added with stirring to the mixture, and the mixture was heated at 37° C. for 2 minutes before measuring the variation of the absorbance at 400 nm for 2 minutes.
2-chloro-4-nitrophenyl 5^5 -eno-4^5 -O-mesyl-β-D-maltopentaoside (referred to hereinafter as substrate of the present invention) obtained in Example 1 was dissolved in a 50 mM phosphate buffer (pH=7.0) containing 40 mM NaCl and 2 mM MgCl2 to a concentration of 3.00 mM.
2-chloro-4-nitrophenyl 5^3 -eno-4^3 -O-mesyl-β-D-maltotrioside(referred to hereinafter as reference substrate) obtained in the previous step (1) was dissolved in a 50 mM phosphate buffer (pH=7.0) containing 40 mM NaCl an 2 mM MgCl2 to a concentration of 3.00 mM.
α-amylase solutions were prepared in the same manner as in the step (5) of Example 7.
The variations of absorbance were measured in the same manner as in the step (6) of Example 7.

Km [1] [µM]	Patterns of action, hydrolyzed product G2CNP [2] [mol %]	Patterns of action, hydrolyzed product G3CNP [2] [mol %]	Patterns of action, hydrolyzed product G4CNP [2] [mol %]	Patterns of action, hydrolyzed product GCNP [2] [mol %]	Solubility in water (Solubility in water)	Hydrolysis rate [3]	Hydrolysis rate [4]	Km [5] [µM]	Patterns of action, hydrolyzed product G2CNP [6] [mol %]	Patterns of action, hydrolyzed product G3CNP [6] [mol %]	Patterns of action, hydrolyzed product G4CNP [6] [mol %]	Patterns of action, hydrolyzed product GCNP [6] [mol %]	Increase in absorbance for 2 minutes (corrected by the 0 IU/l of α-amylase activity) ([7]; Table 1, α-amylase activity 250 IU/l)	Increase in absorbance for 2 minutes (corrected by the 0 IU/l of α-amylase activity) ([7]; Table 1, α-amylase activity 500 IU/l)	hydrolysis by α-amylase (in words) [7]	Increase in absorbance for 2 minutes (corrected by the 0 IU/l of α-amylase activity) ([7]; Table 2, α-amylase activity 250 IU/l)	Increase in absorbance for 2 minutes (corrected by the 0 IU/l of α-amylase activity) ([7]; Table 2, α-amylase activity 500 IU/l)	SMILES
290	83	11	4	2	Good	10	10	370	81	8	8	3						O=[N+]([O-])c1ccc(O[C@@H]2O[C@H](CO)[C@@H](O[C@H]3O[C@H](CO)[C@@H](O[C@H]4O[C@H](CO)[C@@H](O[C@H]5O[C@H](CO)[C@@H](O[C@H]6O[C@H](CO)[C@@H](O)[C@H](O)[C@H]6O)[C@H](O)[C@H]5O)[C@H](O)[C@H]4O)[C@H](O)[C@H]3O)[C@H](O)[C@H]2O)c(Cl)c1 [Example G5CNP, 2-chloro-4-nitrophenylβ-D-maltopentaoside, reference compound]
													0.002	0.005	hardly hydrolyzed			[N-]=[N+]=NC[C@H]1O[C@H](O[C@H]2[C@H](O)[C@@H](O)[C@@H](O[C@H]3[C@H](O)[C@@H](O)[C@H](Oc4ccc([N+](=O)[O-])cc4Cl)O[C@@H]3CO)O[C@@H]2CO)[C@H](O)[C@@H](O)[C@@H]1O [Substrate solution (b) (Table 1), 2-chloro-4-nitrophenyl 6^3-azido-6^3-deoxy-β-D-maltotrioside, reference compound]
															hardly hydrolyzed	0.001	0.002	C=C1O[C@H](O[C@H]2[C@H](O)[C@@H](O)[C@@H](O[C@H]3[C@H](O)[C@@H](O)[C@H](Oc4ccc([N+](=O)[O-])cc4Cl)O[C@@H]3CO)O[C@@H]2CO)[C@H](O)[C@@H](O)[C@@H]1OS(C)(=O)=O [Substrate solution (b) (Table 2), 2-chloro-4-nitrophenyl 5^3-eno-4^3 -O-mesyl-β-D-maltotrioside, reference compound]
